Source: patent publication US7232646B2, “Low-viscous, radiation curable formulation, particularly for the stereo-lithographical production of earpiece” (Dreve-Otoplastik GmbH, priority 2003, dated 2007)

Experiment: Window pane method for critical energy Ec and laser penetration depth Dp
Assay type: physicochemical
Conditions: inhibitor added to resin formulation; for influence of inhibitor concentration on laser penetration depth Dp: FIGS. 1 and 3; for influence of inhibitor concentration on critical energy Ec: FIGS. 2 and 4
Experimental: Into the mixture according to the invention, 2,2,6,6-tetramethylpiperdine-1-yloxy (free radical) is added. The influence of the concentration of the 2,2,6,6-tetramethylpiperdine-1-yloxy (free radical) in the exemplary formalation 1 upon the penetration depth of the laser beam and energy has been shown in FIGS. 1 and 2. The laser penetration depth and the critical energy are determined by means of the window pane method described by P. F. Jacobs and D. R. Read in Rapid Prototyping and Manufacturing of the Society of Manufacturing Engineers, Dearborn, Mich. (1992), 1st, ed., pgs. 263-280. […] This influence of the inhibitor 2,2,6,6-tetramethylpiperdine-1-yloxy (free radical) upon the relevant parameters Ec (critical energy in mJ cm^−2) and Dp (laser penetration depth in mils) of the stereolithographic resin, the effect differing from the influence of the inhibitors like, for example, hydroquinone-monomethylether which are added to stereolithographic resins in accordance with the state of the art. The influence of the hydroquinonemonomethylether on the parameters Ec and Dp in the exemplary formulations 2 is shown in FIGS. 3 and 4.
The relevant parameters for the use of the above mentioned resins in stereolithography are collected in Table 1. All viscosity measurements were carried out at 23° C. with a CVO 120 rheometer of Bohlin Instruments. The determination of the bend strength, the modulus of elasticity and the elongation were carried out in accordance with EN ISO 178 (1996) with a Zwick 1—test machine of the Zwick firm. For the determination of the Ec and Dp values by means of the above mentioned window pane method, the average value from 10 window pane sample bodies was determined. The sample bodies were produced with a Viper Si^2 SLA apparatus equipped with an ND:YVO4 solid body laser. The green bodies were after hardened with a stroboscope lighting unit Sonolux PR from Innovation Meditech by means of 4000 flashes.

Compound | influence of inhibitor concentration on laser penetration depth Dp | influence of inhibitor concentration on critical energy Ec
CC1(C)CCCC(C)(C)N1[O] [2,2,6,6-tetramethylpiperdine-1-yloxy (free radical)] | only a limited change in the penetration depth | surprising increase in the critical energy
COc1ccc(O)cc1 [hydroauinonemonomethylether, hydroquinone-monomethylether] | greater than in the case of the use of the 2,2,6,6-tetramethyl piperdine-1-yloxy (free radical) | can only be adjusted by significantly higher concentrations
